In PMC4624142, “Purification and characterisation of intracellular alpha-galactosidases from Acinetobacter sp” (3 Biotech, 2015):

Assays:
Format in all cases: biochemical, Acinetobacter sp.
Conditions in all cases: 20 mM Tris pH 7.0, 50 °C; unit mM ml^−1 [sic]
[1] = test system: T1, alpha-galactosidase I (Ag-I); assay: reducing sugar (DNS, […] nm), Lineweaver-Burk
T1 construct: native intracellular enzyme purified from Acinetobacter sp. isolate G1 (soil, sugarcane industry, Sangareddy, India); 65 kDa, monomer

[2] = test system: T2, alpha-galactosidase II (Ag-II); assay: reducing sugar (DNS, […] nm), Lineweaver-Burk
T2 construct: native intracellular enzyme purified from Acinetobacter sp. isolate G1 (soil, sugarcane industry, Sangareddy, India); 37 kDa, monomer

[3] = test system: T1, alpha-galactosidase I (Ag-I); assay: p-nitrophenol release at […] nm, Lineweaver-Burk
[4] = test system: T2, alpha-galactosidase II (Ag-II); assay: p-nitrophenol release at […] nm, Lineweaver-Burk

Row | SMILES | Michaelis constant (K m) mM ml^-1 [1] [mM ml^−1] | Michaelis constant (K m) mM ml^-1 [2] [mM ml^−1] | Michaelis constant (K m) mM ml^-1 [3] [mM ml^−1] | Michaelis constant (K m) mM ml^-1 [4] [mM ml^−1]
1 | OC[C@H]1O[C@H](OC[C@H]2O[C@H](O[C@]3(CO)O[C@H](CO)[C@@H](O)[C@@H]3O)[C@H](O)[C@@H](O)[C@@H]2O)[C@H](O)[C@@H](O)[C@H]1O [Raffinose] | 3.26 | 0.74 |  | 
2 | O=[N+]([O-])c1ccc(O[C@H]2O[C@H](CO)[C@H](O)[C@H](O)[C@H]2O)cc1 [ρNPGal, p-Nitrophenyl-α-D-galactopyranoside] |  |  | 0.33 | 0.68
